Source: US20070059684A1 (UNIVERSITY OF MEDICINE AND DENTISTRY OF NEW JERSEY, published 2007)
“Also recorded” adds a separate entry of the source. Read-outs that look alike come from different tables or passages of the source. One block for each molecule: values may come before it.

Tests used:
[1] = tested on: L-A, M1 and L-BC dsRNA viruses; assay type: cell-based, Saccharomyces cerevisiae; conditions: 72 hrs at 3.8 μM anisomycin; not confirmed by northern blot
Source text: FIG. 12. (A) A single non-killer (K^−) colony from each drug concentration in the 72 hr data set was picked at random and total nucleic acids (TNA) were extracted [Dinman and Wickner, Virology 66:3669 (1992)]. Approximately equal amounts of TNA were separated through a 1% non-denaturing TAE-agarose gel and stained with ethidium bromide. The 4.6 kb L-A and L-BC, and the 1.8 kb M1 dsRNA bands are indicated. (B) RNA was denatured in the gel shown in (A), transferred to nitrocellulose and hybridized with [^32P]CTP labeled L-A and M1 (+) strand RNA probes as described in [Dinman and Wickner, Genetics 136:75 (1994)].
To determine whether loss of the M1 satellite virus was responsible for loss of the killer phenotype, a non-killer (K^−) colony from each drug concentration in the 72 hr data set was picked at random and total nucleic acids (TNA) were extracted [Park et al., Virology 216:451 (1996)]. Approximately equal amourits of TNA were separated through a 1% non-denaturing TAE-agarose gel and stained with ethidium bromide (FIG. 12A). As expected, the 1.8 kb M1 dsRNA band is not present in the K^− (drug treated) samples. Further, L-A appears to have also been cured by these drugs. […]
Recently the cDNA sequence of L-BC (also known as La), a ubiquitous minor dsRNA virus of yeast has been determined [Park et al., supra]. […]

[2] = tested on: human host cells; assay type: cell-based
Procedure: Antiviral activities of these antibiotics were also tested against HIV.

[3] = tested on: killer phenotype (M1 satellite virus); conditions: 3.8 μM anisomycin, after 48 or 72 hours, JD88 cells
[4] = tested on: translation; assay type: cell-based, Saccharomyces cerevisiae; conditions: JD88 cells, indicated drug concentrations, 30° C. 5 hrs
[5] = tested on: nonsense mutations; conditions: 5 ug/ml, UPF1+ and UPF1− strains
[6] = tested on: HIV; assay type: cell-based, human
[7] = tested on: tcm1/mak8 mutants; conditions: cited from earlier work
[8] = tested on: Saccharomyces cerevisiae strains (wildtype, mof4-1); assay type: cell-based; conditions: 30° C. 4 days
[9] = biological target: T1, Upf2p (Saccharomyces cerevisiae, UniProt P38798 1-1089, limits assumed); experiment: two-hybrid system
T1 construct: Tested in a two-hybrid system; also called product of the UPF2/IFS1 gene
T1 sequence (looked up): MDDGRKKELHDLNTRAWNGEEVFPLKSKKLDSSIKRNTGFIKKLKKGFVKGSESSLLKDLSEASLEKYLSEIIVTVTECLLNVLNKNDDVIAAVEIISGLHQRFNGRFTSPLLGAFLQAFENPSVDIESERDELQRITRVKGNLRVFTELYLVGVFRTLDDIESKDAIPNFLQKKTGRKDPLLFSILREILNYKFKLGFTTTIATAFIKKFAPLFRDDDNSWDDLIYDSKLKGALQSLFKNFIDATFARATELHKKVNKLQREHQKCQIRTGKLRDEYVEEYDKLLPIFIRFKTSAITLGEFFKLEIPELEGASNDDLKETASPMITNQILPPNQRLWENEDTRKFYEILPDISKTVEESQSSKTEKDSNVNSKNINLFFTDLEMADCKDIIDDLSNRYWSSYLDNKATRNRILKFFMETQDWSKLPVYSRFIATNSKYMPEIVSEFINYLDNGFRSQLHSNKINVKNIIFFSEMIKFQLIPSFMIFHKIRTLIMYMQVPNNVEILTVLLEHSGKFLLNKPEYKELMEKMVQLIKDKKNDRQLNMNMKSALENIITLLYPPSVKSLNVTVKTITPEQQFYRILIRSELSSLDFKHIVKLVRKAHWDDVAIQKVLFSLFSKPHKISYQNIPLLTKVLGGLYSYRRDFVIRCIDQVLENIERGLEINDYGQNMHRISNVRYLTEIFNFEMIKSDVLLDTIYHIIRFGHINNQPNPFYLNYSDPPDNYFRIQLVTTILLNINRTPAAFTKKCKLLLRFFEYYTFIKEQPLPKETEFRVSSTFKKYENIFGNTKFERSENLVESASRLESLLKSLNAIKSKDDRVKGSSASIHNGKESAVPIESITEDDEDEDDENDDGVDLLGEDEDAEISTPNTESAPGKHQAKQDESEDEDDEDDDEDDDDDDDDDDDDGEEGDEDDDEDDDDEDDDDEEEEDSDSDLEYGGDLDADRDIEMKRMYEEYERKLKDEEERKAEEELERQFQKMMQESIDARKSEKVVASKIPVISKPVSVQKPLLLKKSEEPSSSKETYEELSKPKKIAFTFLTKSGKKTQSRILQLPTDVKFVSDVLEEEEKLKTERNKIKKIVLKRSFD

Molecule: COc1ccc(C[C@H]2NC[C@H](O)[C@H]2OC(C)=O)cc1 [anisomycin]
L-BC dsRNA band [1]: appears to missing
minimum inhibitory concentration (MIC) [2]: about 1.5 ug/ml
loss of the killer phenotype (non-killer colonies / total colony forming units) [3]: approximately 53%
overall translation (β-gal activities from pTI25) as percentage of the no drug controls [4]: ≥ 80%
nonsense suppression [5]: able to suppress nonsense mutations
titers of HIV [6]: decrease titers of HIV
HIV viral titers as % of the no drug controls ([6]; anisomycin at concentrations 1500-fold lower than MIC, 4 days): approximately 30%
antiviral concentration relative to the MIC (fold lower) ([6]; concentration giving approximately 30% HIV titer): 1500
effectiveness in tcm1/mak8 mutants [7]: resistant; also recorded: ineffective

Molecule: NC[C@@H]1O[C@H](O[C@H]2[C@@H](O)[C@H](O[C@@H]3[C@@H](O)[C@H](N)C[C@H](N)[C@H]3O[C@H]3O[C@H](CO)[C@@H](O)[C@H](O)[C@H]3N)O[C@@H]2CO)[C@H](N)[C@@H](O)[C@@H]1O [paromomycin]
PAROMOMYCIN SENSITIVITY (diameter of the zone of growth inhibition) ([8]; strain Wildtype (MOF+UPF+), disc 1.0 mg paromomycin, media lacking leucine): 0.7 cm
PAROMOMYCIN SENSITIVITY (diameter of the zone of growth inhibition) ([8]; strain mof4-1 (UPF1::URA3) + pmof4XAB, disc 1.0 mg, media lacking uracil and leucine): 1.6 cm
PAROMOMYCIN SENSITIVITY (diameter of the zone of growth inhibition) ([8]; strain mof4-1 (UPF1::URA3) + pmof4XAE, disc 1.0 mg, media lacking uracil and leucine): 2.3 cm
PAROMOMYCIN SENSITIVITY (diameter of the zone of growth inhibition) ([8]; strain mof4-1 (UPF1::URA3) + vector, disc 1.0 mg, media lacking uracil and leucine): 1.7 cm
PAROMOMYCIN SENSITIVITY (diameter of the zone of growth inhibition) ([8]; strain mof4-1 + pYCpUPF1, disc 1.0 mg, media lacking uracil and leucine): 1.6 cm
PAROMOMYCIN SENSITIVITY (diameter of the zone of growth inhibition) ([8]; strain mof4-1 + vector, disc 1.0 mg, media lacking uracil and leucine): 2.4 cm
PAROMOMYCIN SENSITIVITY (diameter of the zone of growth inhibition) ([8]; strain mof4-1, disc 1.0 mg paromomycin, media lacking leucine): 2.0 cm
nonsense suppression [5]: able to suppress nonsense mutations

binding result [9]: binds
B1: Upf3p (other, Saccharomyces cerevisiae, UniProt P48412 1-387, looked up)
chain: MSNVAGELKNSEGKKKGRGNRYHNKNRGKSKNETVDPKKNENKVNNATNATHNNSKGRRNNKKRNREYYNYKRKARLGKSTENEGFKLVIRLLPPNLTADEFFAILRDNNNDDGDKQDIQGKLKYSDWCFFEGHYSSKVFKNSTYSRCNFLFDNLSDLEKCANFIKTCKFIDNKDNITIPDMKLSPYVKKFTQTSKKDAALVGTIEEDEIFKTFMNSMKQLNENDEYSFQDFSVLKSLEKEFSKSIELENKIAERTERVLTELVGTGDKVKNKNKKKKNKNAKKKFKEEEASAKIPKKKRNRGKKKRENREKSTISKTKNSNVVIIEEAGKEVLKQRKKKMLLQEKLKISNSSQPQSSSAQTQPSFQPKENLFVPRVKILHRDDTKK
notes: Tested in a two-hybrid system; also called product of the UPF3 gene

binding result [9]: binds
B2: Upf1p (other, Saccharomyces cerevisiae, UniProt P30771 1-971, looked up)
chain: MVGSGSHTPYDISNSPSDVNVQPATQLNSTLVEDDDVDNQLFEEAQVTETGFRSPSASDNSCAYCGIDSAKCVIKCNSCKKWFCNTKNGTSSSHIVNHLVLSHHNVVSLHPDSDLGDTVLECYNCGRKNVFLLGFVSAKSEAVVVLLCRIPCAQTKNANWDTDQWQPLIEDRQLLSWVAEQPTEEEKLKARLITPSQISKLEAKWRSNKDATINDIDAPEEQEAIPPLLLRYQDAYEYQRSYGPLIKLEADYDKQLKESQALEHISVSWSLALNNRHLASFTLSTFESNELKVAIGDEMILWYSGMQHPDWEGRGYIVRLPNSFQDTFTLELKPSKTPPPTHLTTGFTAEFIWKGTSYDRMQDALKKFAIDKKSISGYLYYKILGHQVVDISFDVPLPKEFSIPNFAQLNSSQSNAVSHVLQRPLSLIQGPPGTGKTVTSATIVYHLSKIHKDRILVCAPSNVAVDHLAAKLRDLGLKVVRLTAKSREDVESSVSNLALHNLVGRGAKGELKNLLKLKDEVGELSASDTKRFVKLVRKTEAEILNKADVVCCTCVGAGDKRLDTKFRTVLIDESTQASEPECLIPIVKGAKQVILVGDHQQLGPVILERKAADAGLKQSLFERLISLGHVPIRLEVQYRMNPYLSEFPSNMFYEGSLQNGVTIEQRTVPNSKFPWPIRGIPMMFWANYGREEISANGTSFLNRIEAMNCERIITKLFRDGVKPEQIGVITPYEGQRAYILQYMQMNGSLDKDLYIKVEVASVDAFQGREKDYIILSCVRANEQQAIGFLRDPRRLNVGLTRAKYGLVILGNPRSLARNTLWNHLLIHFREKGCLVEGTLDNLQLCTVQLVRPQPRKTERPMNAQFNVESEMGDFPKFQDFDAQSMVSFSGQIGDFGNAFVDNTELSSYINNEYWNFENFKSAFSQKQNRNEIDDRNLYQEEASHLNSNFARELQREEQKHELSKDFSNLGI
notes: Tested in a two-hybrid system; also called Upf1 protein; product of the UPF1/IFS2/MOF4 gene
